Laboratory results taken from PMC12440824, “Chimeric deubiquitinase engineering reveals structural basis for specific inhibition of the mitophagy regulator USP30” (Nature Structural & Molecular Biology, 2025).
Read-outs that look alike come from different tables or passages of the source.

Columns and labels:
USP30^c1 = target: T1, USP30^c1 (Homo sapiens, UniProt Q70CQ3, DEL179-208/DEL211-214/DEL358-428/F348D/I353E/M350S/N216S/S215G); assay: Thermal shift assay, USP30 c1; type: binding; settings: for Tm in presence of compound, USP30^c1: 20 μM inhibitor
T1 sequence (Q70CQ3 with tags, fused parts or gaps DEL179-208/DEL211-214/S215G/N216S/F348D/M350S/I353E/DEL358-428): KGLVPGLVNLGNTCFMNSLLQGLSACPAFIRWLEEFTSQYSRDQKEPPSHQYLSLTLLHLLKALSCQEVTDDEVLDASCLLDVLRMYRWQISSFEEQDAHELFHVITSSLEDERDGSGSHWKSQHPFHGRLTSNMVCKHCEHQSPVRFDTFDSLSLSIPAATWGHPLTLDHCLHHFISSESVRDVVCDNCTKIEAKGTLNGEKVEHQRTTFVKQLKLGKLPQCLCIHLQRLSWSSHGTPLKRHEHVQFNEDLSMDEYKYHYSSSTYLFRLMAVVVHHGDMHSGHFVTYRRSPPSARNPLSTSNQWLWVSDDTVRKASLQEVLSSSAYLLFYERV
Procedure: (§1) The thermal stability of USP30 constructs and effects of either inhibitor or Ub-PA binding were determined by thermal shift assays. Inhibitor, Ub-PA and SYPRO orange dye (Sigma, 5,000× stock in DMSO) solutions were prepared in 1× PBS, 4 mM DTT. Inhibitor/Ub-PA was prediluted to 100 µM, and SYPRO orange dye was prediluted to 50× (from the commercial stock). Mixtures of protein, inhibitor/Ub-PA and SYPRO were prepared with inhibitor/Ub-PA at a final concentration of 20 μM, SYPRO at a final concentration of 4× and protein at a final concentration of 2 μM for c1, 4 μM for ch1, ch4 and c2 and 3 μM for ch2 and ch3. Samples were added in triplicate to a white 96-well PCR plate (Bio-Rad). Fluorescence intensity was monitored (excitation, 450–490 nm; emission, 560–580 nm) at a gradient of 20–90 °C (increment of 0.3 °C, hold for 5 s before read) on a real-time PCR system (Bio-Rad).

USP30^ch2 = USP30^ch2 (Homo sapiens, UniProt Q70CQ3); assay: Thermal shift assay, USP30 ch2; type: binding; settings: 20 μM inhibitor
Sequence of USP30^ch2 (Q70CQ3 64-502): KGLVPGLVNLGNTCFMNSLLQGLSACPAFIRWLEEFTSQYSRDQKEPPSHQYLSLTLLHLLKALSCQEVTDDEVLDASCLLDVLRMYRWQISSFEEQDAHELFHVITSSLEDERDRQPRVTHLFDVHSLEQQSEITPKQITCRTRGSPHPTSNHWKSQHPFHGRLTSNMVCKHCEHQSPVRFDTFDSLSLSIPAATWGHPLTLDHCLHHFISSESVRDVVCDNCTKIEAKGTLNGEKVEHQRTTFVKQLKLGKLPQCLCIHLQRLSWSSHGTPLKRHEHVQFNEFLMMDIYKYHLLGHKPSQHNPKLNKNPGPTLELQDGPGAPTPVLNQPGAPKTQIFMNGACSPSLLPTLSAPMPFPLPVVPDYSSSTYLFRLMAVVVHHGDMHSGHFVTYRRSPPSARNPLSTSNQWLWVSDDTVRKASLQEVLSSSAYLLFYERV
Sequence of USP30^ch2 (P54578 248-318 partner): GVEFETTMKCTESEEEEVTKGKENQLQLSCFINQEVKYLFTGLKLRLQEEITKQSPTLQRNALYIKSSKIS
Procedure: as §1

[1] = Solubility in aqueous buffers (observation during crystallization); type: physicochemical
USP30^ch3 L328F = assay: Thermal shift assay, USP30 ch3 L328F; type: binding, human; settings: 20 μM inhibitor; for ΔTm, USP30^ch3 L328F: replicates or average
Procedure: as §1

[2] = tested on: T2, endogenous USP30 in HEK293 cells; assay: Cellular ubiquitin probe competition, endogenous USP30; type: cell-based, human; settings: 8 µM compound, 2 h; HA-Ub-PA probe in lysate
T2 construct: Target engagement assay with endogenous USP30; endogenous in cells; host or cells: HEK293 (DSMZ ACC 305)
Procedure: Cells were seeded at 8 × 10^5 cells per well and grown for 48 h. Compounds (2 µM for overexpressed USP30, 8 µM for endogenous USP30) or DMSO were added for 2 h in freshly supplied medium. The medium was aspirated, and cells were washed once with ice-cold PBS. Cells were collected by scraping in lysis buffer (150 mM NaCl, 250 mM sucrose, 50 mM Tris, pH 8.0, 5 mM TCEP) supplemented with EDTA-free complete protease inhibitor cocktail and benzonase. Suspended cells were homogenized by 12 bursts of a microtip probe sonicator (Branson Sonifier 450) at 10% amplitude with pulses of 1 s on ice. Remaining cell debris was separated by centrifugation (20,817g, 5 min, 4 °C). HA-Ub-PA probe was added to the cleared lysate (approximately 2–4 mg ml^−1) at a final concentration of 10 μM when indicated. After incubation for 10 min at room temperature, reactions were quenched by the addition of 4× reducing LDS sample buffer. Samples were resolved by SDS–PAGE and further analyzed via western blot.
Using a Trans-Blot Turbo system (Bio-Rad, 1.0 A, 25 V, 30 min), proteins were blotted onto a nitrocellulose membrane. […] Images were recorded on a ChemiDoc MP Imaging System (Bio-Rad).

[3] = tested on: T3, Flag-tagged, full-length USP30 F453Y in HEK293 cells; assay: Cellular ubiquitin probe competition, overexpressed Flag-tagged USP30 F453Y; type: cell-based, human; settings: 2 µM compound, 2 h; HA-Ub-PA probe in lysate
T3 construct: C-terminally Flag-tagged human USP30 (1–517) was used for transient transfection; expressed in transfected cells; host or cells: HEK293, transient transfection of a pOPINE vector
Procedure: HEK293 cells (8 × 10^5 cells per well) were seeded in six-well plates and cultivated for 24 h. PEI transfecting reagent (Polysciences) was pre-incubated for 10 min with the vectors in 200 μl Opti-MEM medium (2 µg DNA per well). Cells were transfected and incubated for 48 h. Following the treatment with either compounds or DMSO in fresh medium for an additional 2 h, cells were processed as described below. Cells were seeded at 8 × 10^5 cells per well and grown for 48 h. […] The medium was aspirated, and cells were washed once with ice-cold PBS. Cells were collected by scraping in lysis buffer (150 mM NaCl, 250 mM sucrose, 50 mM Tris, pH 8.0, 5 mM TCEP) supplemented with EDTA-free complete protease inhibitor cocktail and benzonase. Suspended cells were homogenized by 12 bursts of a microtip probe sonicator (Branson Sonifier 450) at 10% amplitude with pulses of 1 s on ice. Remaining cell debris was separated by centrifugation (20,817g, 5 min, 4 °C). […] After incubation for 10 min at room temperature, reactions were quenched by the addition of 4× reducing LDS sample buffer. Samples were resolved by SDS–PAGE and further analyzed via western blot. Using a Trans-Blot Turbo system (Bio-Rad, 1.0 A, 25 V, 30 min), proteins were blotted onto a nitrocellulose membrane. […]

USP30^ch1 = USP30^ch1 (Homo sapiens, UniProt Q70CQ3); assay: Thermal shift assay, USP30 ch1; type: binding; settings: 20 μM inhibitor
Sequence of USP30^ch1 (Q70CQ3 64-502): as the sequence (Q70CQ3 64-502) above
Sequence of USP30^ch1 (Q93009 325-395 partner): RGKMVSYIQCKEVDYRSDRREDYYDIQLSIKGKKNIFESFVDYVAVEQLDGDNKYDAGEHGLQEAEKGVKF
Procedure: as §1

CC(C)(CO)NS(=O)(=O)c1ccc(NC(=O)[C@H](Cc2ccccc2)NC(=O)c2ccc(F)cc2)cc1 [NK036]
Tm in presence of compound, USP30^c1 (USP30^c1): 58.3 °C
ΔTm at 20 µM (USP30^c1; read-out: ΔTm, USP30^c1): 7.2 °C
ΔTm at 20 µM (USP30^c1; read-out: ΔTm, column headed USP30c1 in sheet Fig. 4f): 6.1 °C
Tm in presence of compound, USP30^ch2 (USP30^ch2): 58.5 °C
solubility in aqueous buffers [1]: improved
Tm in presence of compound, USP30^ch3 L328F (USP30^ch3 L328F): 58.2 °C
ΔTm, USP30^ch3 L328F (USP30^ch3 L328F): 1.2 °C
activity in probe-labeling experiment with endogenous USP30 [2]: confirmed
probe labeling of Flag-USP30 F453Y [3]: equally labeled
Tm in presence of compound, USP30^ch1 (USP30^ch1): 55.2 °C

CC(C)(C)NS(=O)(=O)c1ccc(NC(=O)[C@H](Cc2ccccc2)NC(=O)c2ccc(F)cc2)cc1 [compound 39]
Tm in presence of compound, USP30^c1 (USP30^c1): 58.9 °C
ΔTm at 20 µM (USP30^c1; read-out: ΔTm, USP30^c1): 7.8 °C
Tm in presence of compound, USP30^ch2 (USP30^ch2): 59.1 °C
solubility in aqueous buffers [1]: poor solubility
Tm in presence of compound, USP30^ch3 L328F (USP30^ch3 L328F): 58.5 °C
ΔTm, USP30^ch3 L328F (USP30^ch3 L328F): 1.5 °C
activity in probe-labeling experiment with endogenous USP30 [2]: confirmed
probe labeling of Flag-USP30 F453Y [3]: equally labeled
Tm in presence of compound, USP30^ch1 (USP30^ch1): 56.1 °C
